Results published in EP0583566A2, “Process for the preparation of glycine-conjugated bile acids and relative pharmaceutical compositions useful for treating hepatic insufficiency” (ERREGIERRE INDUSTRIA CHIMICA Spa, priority 1992, dated 1994).
Like-named read-outs stand apart in the source and are kept apart here.

Tests used:
[1] = system: hepatotoxic effects of TUDCA; assay: hepatoprotective activity against bile acid hepatotoxicity on co-administration; type: in vivo; settings: 0.8 µmol/min/100g
From the text: Normal values of alkaline phosphatase (ALP) and biliary lactate dehydrogenase (LDH) as well as of bile flow and calcium secretion are thereby obtained.

uptake by the liver = type: in vivo
From the text: GUDCA is well absorbed by the intestine through a double mechanism, i.e. active and passive, transported to the liver by the portal system and uptaken. It passes rapidly through the liver without being metabolized and is then secreted in the bile with high transport rate and efficiency. UDCA is absorbed only through a passive mechanism and is uptaken by liver at 50% (GUDCA at 80%).

[2] = in vivo
From the text: GUDCA is well absorbed by the intestine through a double mechanism, i.e. active and passive, transported to the liver by the portal system and uptaken. It passes rapidly through the liver without being metabolized and is then secreted in the bile with high transport rate and efficiency.

[3] = critical micellar concentration (detergent capacity); type: physicochemical

Compound | prevention of hepatotoxic effects ([1]; administered with TUDCA at the same dose) | alkaline phosphatase (ALP) and biliary lactate dehydrogenase (LDH) ([1]; for GUDCA also bile flow and calcium secretion normal) | hepatic extraction ratio (uptake by the liver; in vivo) | logP (physchem) | Fa [2] [%] | critical micellar concentration [3] [µM] | pKa (pKa) | hepatic extraction ratio (uptake by the liver; liver, read-out: uptaken by liver) | pH values of the intestine contents at which absorbed [2]
C[C@H](CCC(=O)NCC(=O)O)[C@H]1CC[C@H]2[C@@H]3[C@@H](O)C[C@@H]4C[C@H](O)CC[C@]4(C)[C@H]3CC[C@]12C [GUDCA, glycoursodeoxycholic acid] | can prevent the hepatotoxic effects | Normal values | 0.8 | 2 | 100 | 12 |  |  | 
C[C@H](CCC(=O)NCCS(=O)(=O)O)[C@H]1CC[C@H]2[C@@H]3[C@@H](O)C[C@@H]4C[C@H](O)CC[C@]4(C)[C@H]3CC[C@]12C [TUDCA, tauroursodeoxycholic acid] |  |  |  |  |  |  | ~1 |  | 
C[C@H](CCC(=O)O)[C@H]1CC[C@H]2[C@@H]3[C@@H](O)C[C@@H]4C[C@H](O)CC[C@]4(C)[C@H]3CC[C@]12C [UDCA, ursodeoxycholic acid] |  |  |  |  | 50 |  |  | 0.5 | 8.5
